# Data as given in ChEMBL document CHEMBL5244207, “Phenanthrenes: A Promising Group of Plant Secondary Metabolites” (J Nat Prod, 2018).
# Experiments:
# Staphylococcus aureus [1] = experiment: Antibacterial activity against Staphylococcus aureus assessed as inhibition of bacterial growth; type: functional, organism-based
# [2] = tested on: Staphylococcus epidermidis; experiment: Antibacterial activity against Staphylococcus epidermidis assessed as reduction in bacterial growth; type: functional, organism-based
# Trichophyton rubrum [3] = experiment: Antimicrobial activity against Trichophyton rubrum assessed as inhibition zone at 5 ug/disk; type: functional; conditions: read-out: IZ
# BV-2 [4] = experiment: Antiinflammatory activity in mouse BV2 cells assessed as reduction in LPS-induced nitric oxide production at 10 uM relative to control; type: functional; set-up: scale not given: the % may be the effect or the level left
# SK-OV-3 = experiment: Cytotoxicity against human SK-OV-3 cells assessed as reduction in cell viability; type: functional, cell-based
# [5] = Antioxidant activity assessed as DPPH radical scavenging activity; type: functional
# CT26.WT = experiment: Cytotoxicity against mouse CT26.WT cells by MTT assay; type: functional, cell-based
# CHO = experiment: Cytotoxicity against CHO cells by MTT assay; type: functional, cell-based; conditions: Cricetulus griseus
# B16-F10 = experiment: Cytotoxicity against mouse B16-F10 cells by MTT assay; type: functional, cell-based
# Pichia kudriavzevii = experiment: Antifungal activity against Candida krusei assessed as inhibition of fungal growth measured after 48 hrs by CLSI based agar dilution method; type: functional, organism-based
# MeWo = experiment: Cytotoxicity against human MeWo cells by MTT assay; type: functional, cell-based
# [6] = Hemolytic activity in human Neutrophil at 10 uM relative to control; type: toxicity, cell-based
# [7] = Hemolytic activity in human Neutrophil assessed as hemolysis rate at 10 uM relative to control; type: toxicity, cell-based; conditions: human neutrophils, read-out: Activity
# [8] = Antioxidant activity assessed as DPPH radical scavenging activity incubated for 30 mins by spectrophotometric analysis; type: functional
# RAW264.7 [9] = experiment: Antiinflammatory activity in mouse RAW264.7 cells assessed as reduction in LPS-induced nitric oxide production; type: functional, cell-based
# HL-60 [10] = experiment: Cytotoxicity against human HL-60 cells assessed as reduction in cell viability by MTT assay; type: functional, cell-based
# Bel-7402 = experiment: Cytotoxicity against human Bel-7402 cells assessed as reduction in cell viability; type: functional, cell-based
# SGC-7901 = experiment: Cytotoxicity against human SGC-7901 cells assessed as reduction in cell viability; type: functional, cell-based
# [11] = Antioxidant activity assessed as DPPH radical scavenging activity at 20 uM relative to control; type: functional
# [12] = Antioxidant activity assessed as ABTS radical scavenging activity; type: functional
# Staphylococcus aureus [13] = experiment: Antibacterial activity against Staphylococcus aureus ATCC 43300 assessed as inhibition of bacterial growth; type: functional, organism-based
# Staphylococcus aureus [14] = experiment: Antibacterial activity against Staphylococcus aureus ATCC 25923 assessed as inhibition of bacterial growth; type: functional, organism-based
# Staphylococcus aureus [15] = experiment: Antibacterial activity against Staphylococcus aureus ATCC 29213 assessed as inhibition of bacterial growth; type: functional, organism-based
# Mus musculus [16] = experiment: Anxiolytic activity in mouse assessed as number of entries in open arm at 5 mg/kg, po measured after 60 mins by elevated plus maze test; type: functional; conditions: 1 h
# Mus musculus [17] = experiment: Anxiolytic activity in mouse assessed as increase in time spent in open arm at 5 mg/kg, po measured after 60 mins by elevated plus maze test; type: functional; conditions: 1 h
# RAW264.7 [18] = experiment: Antiinflammatory activity in mouse RAW 264.7 cells assessed as inhibition of LPS-induced nitric oxide production measured after 48 hrs by Griess reagent assay; type: functional, cell-based; conditions: RAW264.7, 48 h
# [19] = Inhibition of elastase (unknown origin); set-up: species or system Homo sapiens
# Trichophyton rubrum [20] = experiment: Antimicrobial activity against Trichophyton rubrum assessed as inhibition zone at 10 ug/disk; type: functional; conditions: read-out: IZ
# K562 [21] = experiment: Induction of cell cycle arrest in human K562 cells measured for 24 hrs; type: functional, cell-based; conditions: K562, 24 h
# PC-3 = experiment: Induction of cell cycle arrest in human PC-3 cells measured for 24 hrs; type: functional, cell-based; conditions: PC-3, 24 h
# NCI-H460 = experiment: Cytotoxicity against human NCI-H460 cells assessed as reduction in cell viability; type: functional, cell-based
# M14 = experiment: Cytotoxicity against human M14 cells assessed as reduction in cell viability; type: functional, cell-based
# BV-2 [22] = experiment: Antiinflammatory activity in mouse BV2 cells assessed as reduction in LPS-induced nitric oxide production; type: functional, cell-based
# C6 = experiment: Neuroprotective activity in rat C6 cells assessed as NGF secretion level; type: functional
# [23] = Antioxidant activity assessed as hydrogen peroxide scavenging activity; type: functional
# HaCaT = experiment: Antiinflammatory activity against human HaCaT cells assessed as inhibition of PGE2 production; type: functional, cell-based
# [24] = Inhibition of H2O2-induced ROS production in human HaCaT cells; type: functional, cell-based
# [25] = Toxicity in brine shrimp assessed as lethality; conditions: artemia salina
# K562 [26] = experiment: Cytotoxicity against human K562 cells assessed as reduction in cell viability; type: functional, cell-based
# HL-60 [27] = experiment: Cytotoxicity against human HL-60 cells assessed as reduction in cell viability; type: functional, cell-based; conditions: hl-60
# A549 = experiment: Cytotoxicity against human A549 cells assessed as reduction in cell viability; type: functional, cell-based
# [28] = biological target: Cyclin-dependent kinase 1/cyclin B (Homo sapiens, UniProt P06493); experiment: Inhibition of CDK1/Cyclin B (unknown origin) in presence of ATP by scintillation counter analysis; type: protein-complex assay
# RAW264.7 [29] = experiment: Antiinflammatory activity against mouse RAW264.7 cells assessed as inhibition of LPS-induced COX2 expression; type: functional, cell-based
# RAW264.7 [30] = experiment: Antiinflammatory activity against mouse RAW264.7 cells assessed as inhibition of LPS-induced COX1 expression; type: functional, cell-based
# Rattus norvegicus [31] = experiment: Anxiolytic activity in rat assessed as increase in time spent in open arm at 5 mg/kg by elevated plus maze test; type: functional
# Rattus norvegicus [32] = experiment: Anxiolytic activity in rat assessed as number of entries in open arm at 5 mg/kg by elevated plus maze test; type: functional
# Rattus norvegicus [33] = experiment: Anxiolytic activity in rat assessed as head tips at 5 mg/kg by elevated plus maze test; type: functional
smiles,measurement,setting,value
COc1cc(O)c2c(c1C)CCc1cc(O)c(C)cc1-2,IC50,Staphylococcus aureus [1],12.5 µg/mL
same,IC50,[2],12.5 µg/mL
CC(=O)N1CCN(c2ccc(OCC3COC(Cn4ccnc4)(c4ccc(Cl)cc4Cl)O3)cc2)CC1 (stereo not given) [KETOCONAZOLE],zone of inhibition at 5 µg/disc,Trichophyton rubrum [3],15.7 mm
Cc1c(O)cc2c3c1CCc1c(C)c(O)cc(c1-3)C2C,Activity,BV-2 [4],11.2%
COc1cc(O)c2c(c1)CCc1cc(O)c(-c3c(OC)cc(O)c4c3CCc3c-4ccc(O)c3-c3c(OC)cc(O)c4c3CCc3cc(O)ccc3-4)cc1-2,IC50,SK-OV-3,41.5 µg/mL
same,IC50,[5],4.8 µg/mL
COc1cc2c(c(O)c1C)CCc1c-2ccc(O)c1C=O,IC50,CT26.WT,4 µg/mL
same,IC50,CHO,6 µg/mL
same,IC50,B16-F10,8 µg/mL
same,IC50,Pichia kudriavzevii,31.3 µg/mL
same,IC50,MeWo,5 µg/mL
C=Cc1cc(O)cc2ccc3c(C)c(O)ccc3c12,Activity,[6],5.3
same,hemolysis at 10 µM,[7],11.3%
same,IC50,[8],1.7 µM
same,IC50,"RAW264.7 [9]; Mus musculus, RAW264.7",12.7 µM
same,IC50,RAW264.7 [9]; raw264.7,10.5 µM
O=c1[nH]cc(F)c(=O)[nH]1 [FLUOROURACIL],IC50,CT26.WT,5 µg/mL
same,IC50,CHO,12 µg/mL
same,IC50,B16-F10,4 µg/mL
same,IC50,MeWo,8 µg/mL
COC1=CC(=O)C2=C(CCc3cccc(O)c32)C1=O [EPHEMERANTHOQUINONE B],IC50,HL-60 [10],3 µM
same,IC50,Bel-7402,1.8 µg/mL
same,IC50,"SGC-7901; Homo sapiens, SGC-7901, read-out: IC50",2.9 µg/mL
O=C1O[C@H]([C@@H](O)CO)C(O)=C1O [ASCORBIC ACID],IC50,[8],0.41 µM
same,IC50,[5]; read-out: IC50,18 µM
same,Activity,[11],2.9%
same,Activity,[12],88.7%
COc1cc(O)c(-c2c(O)cc(OC)c3c2ccc2cc(O)ccc23)c2ccc3cc(O)ccc3c12 [CIRRHOPETALANTHIN],IC50,Staphylococcus aureus [13],6.25 µg/mL
same,IC50,Staphylococcus aureus [14],6.25 µg/mL
same,IC50,Staphylococcus aureus [15],6.25 µg/mL
CN1C(=O)CN=C(c2ccccc2)c2cc(Cl)ccc21 [DIAZEPAM],Activity,Mus musculus [16],13.6
same,Time,Mus musculus [17],111.9 s
C=Cc1cc(O)cc2c1-c1ccc(O)c(C)c1CC2 [EFFUSOL],Activity,Mus musculus [16],7.8
same,Time,Mus musculus [17],75.5 s
same,IC50,"RAW264.7 [9]; Mus musculus, RAW264.7",15.1 µM
C=Cc1c(C)c(O)cc2c1CCc1c-2ccc(O)c1C,IC50,RAW264.7 [18],4.9 µM
same,IC50,[19],5.5 µM
COC1=C(OC)C(=O)c2c(ccc3cccc(O)c23)C1=O,IC50,HL-60 [10],4.7 µM
COc1cc2c(c(OC)c1O)-c1c(ccc(O)c1O)CC2,zone of inhibition at 10 µg/disc,Trichophyton rubrum [20],12.7 mm
COC1=CC(=O)c2ccc3cc(OC)cc(O)c3c2C1=O [DENBINOBIN],IC50,K562 [21],1.8 µM
same,IC50,PC-3,7.5 µM
COC1=CC(=O)c2c(ccc3cccc(O)c23)C1=O,IC50,NCI-H460,5 µM
same,IC50,M14,1.5 µM
COc1cc2c(ccc3cc(OC)c(O)c(OC)c32)cc1O,IC50,BV-2 [22],19.6 µM
same,Activity,C6,162.4%
COc1c(O)cc2c3c1COc1cc(O)cc(c1-3)CC2,EC50,[5],8.8 µM
same,IC50,[5]; read-out: IC50,8.4 µM
same,IC50,[23],0.03 µM
same,IC50,HaCaT,12.2 µM
same,IC50,[24],8.8 µM
COc1cc(O)c(-c2c(O)cc(OC)c3c2ccc2cc(O)ccc23)c2c1-c1ccc(O)cc1CC2 [CIRRHOPETALANTHRIN],IC50,Staphylococcus aureus [13],25 µg/mL
same,IC50,Staphylococcus aureus [14],25 µg/mL
same,IC50,Staphylococcus aureus [15],25 µg/mL
O=P1(N(CCCl)CCCl)NCCCO1 (stereo not given) [CYCLOPHOSPHAMIDE ANHYDROUS],LC50,[25],16.4 µg/mL
COc1cc(O)c2c(c1)CCc1cc(-c3c(OC)cc(O)c4c3CCc3cc(O)ccc3-4)c(O)cc1-2,IC50,K562 [26],2.8 µM
same,IC50,HL-60 [27],4 µM
same,IC50,A549,1.2 µM
same,IC50,SGC-7901; sgc-7901,6.1 µM
C=Cc1c(C)c(O)c(-c2c(O)c(C)c(C=C)c3c2ccc2c(C)c(O)ccc23)c2ccc3c(C)c(O)ccc3c12,Activity,[12],85.2%
COc1cc2c(c(O)c1OC)CCc1cc(O)c(OC)c(OC)c1-2,IC50,[28],0.07 µM
COc1cc2c(cc1O)CCc1cc(O)cc(OC)c1-2,IC50,BV-2 [22],19.4 µM
same,IC50,[5]; read-out: IC50,9 µM
same,IC50,[23],0.04 µM
same,IC50,HaCaT,19.3 µM
same,IC50,[24],9.4 µM
COc1cc(O)c2c(c1)CCc1cc(-c3cc(OC)c4c(c3O)CCc3cc(O)ccc3-4)c(O)cc1-2,IC50,K562 [26],6.1 µM
same,IC50,HL-60 [27],1.3 µM
same,IC50,A549,9.2 µM
C=Cc1c(C)c(O)cc2c1-c1ccc(O)c(C)c1CC2,Activity,Mus musculus [16],6.6
same,Time,Mus musculus [17],58.8 s
same,IC50,RAW264.7 [18],3.1 µM
COc1cc(OC)c2c(ccc3cc(OC)c(O)cc32)c1,IC50,RAW264.7 [29],1.8 µM
OC(Cn1cncn1)(Cn1cncn1)c1ccc(F)cc1F [FLUCONAZOLE],IC50,Pichia kudriavzevii,32 µg/mL
COC1=CC(=O)c2c(ccc3cc(OC)c(O)cc23)C1=O,IC50,RAW264.7 [29],0.27 µM
same,IC50,RAW264.7 [30],0.08 µM
C=Cc1c(C)c(O)cc2ccc3c(C)c(O)ccc3c12,Time,Rattus norvegicus [31],56.54 s
same,Activity,Rattus norvegicus [32],>6
same,Activity,Rattus norvegicus [33],>80
same,IC50,"RAW264.7 [9]; Mus musculus, RAW264.7",15.6 µM
O=c1cc(N2CCOCC2)oc2c(-c3ccccc3)cccc12 [LY-294002],IC50,[19],4.8 µM
